This is an account of results in US8357694B2, “Substituted 5,6-dihydro-6-phenylbenzo[F]isoquinolin-2-amine compounds” (ArQule, Inc., priority 2008, dated 2013).

Where a name gives a salt, the structure may show the parent alone.

The first data set concerns SNU-16. Put plainly: MTS assay, SNU-16. Format: cell-based. As to conditions: Homo sapiens, SNU-16, SNU-16; read-out: MTS cell kill data (IC50-μM) SNU-16.
Method: Cells were maintained at 37° C., 5% CO2 in DMEM media supplemented with 1% fetal bovine serum, penicillin/streptomycin and fungizone (Invitrogen). Cells were seeded into 96-well tissue culture plates at 3000 per well and cultured at 37° C. for 18 hours. Test compounds were dissolved and diluted to 300× in DMSO then diluted 1:40 in DMEM.
With `Brc1cccc([C@@H]2Cc3cnc(Nc4ccc(CCN5CCCCC5)cc4)nc3-c3ccccc32)c1` [Example 78, (S)-6-(3-bromophenyl)-N-(4-(2-(piperidin-1-yl)ethyl)phenyl)-5,6-dihydrobenzo[h]quinazolin-2-amine hydrochloride], the IC50 was determined as 4.85 µM.
As for `CN1CCN(CCc2ccc(Nc3ncc4c(n3)-c3ccccc3[C@H](c3ccc(F)c(F)c3)C4)cc2)CC1` [Example 88, (S)-6-(3,4-difluorophenyl)-N-(4-(2-(4-methylpiperazin-1-yl)ethyl)phenyl)-5,6-dihydrobenzo[h]quinazolin-2-amine hydrochloride], the IC50 came out at 9.86 µM.
Take `COCCN1CCN(CCc2ccc(Nc3ncc4c(n3)-c3ccccc3[C@H](c3ccc(Br)cc3)C4)cc2)CC1` [Example 97, (S)-6-(4-bromophenyl)-N-(4-(2-(4-(2-methoxyethyl)piperazin-1-yl)ethyl)phenyl)-5,6-dihydrobenzo[h]quinazolin-2-amine hydrochloride salt]: the IC50 was found to be 4.2 µM.
With `CN(CCc1ccc(Nc2ncc3c(n2)-c2ccccc2[C@H](c2ccc(F)c(F)c2)C3)cc1)C1CCCCC1` [Example 85, (S)-N-(4-(2-(cyclohexyl(methyl)amino)ethyl)phenyl)-6-(3,4-difluorophenyl)-5,6-dihydrobenzo[h]quinazolin-2-amine hydrochloride], the IC50 turned out to be 3.88 µM.
As for `CN(C)CCc1ccc(Nc2ncc3c(n2)-c2ccccc2[C@H](c2ccc(F)c(F)c2)C3)cc1` [Example 87, (S)-6-(3,4-difluorophenyl)-N-(4-(2-(dimethylamino)ethyl)phenyl)-5,6-dihydrobenzo[h]quinazolin-2-amine hydrochloride], the IC50 was 7.78 µM.
Regarding `Fc1ccc([C@H]2Cc3cnc(Nc4ccc(CCN5CCCCC5)cc4)nc3-c3ccccc32)cc1F` [Example 91, (R)-6-(3,4-difluorophenyl)-N-(4-(2-(piperidin-1-yl)ethyl)phenyl)-5,6-dihydrobenzo[h]quinazolin-2-amine hydrochloride], the IC50 came to 6.32 µM.
On the same count and under the same terms, as for `CCCCN(C)CCc1ccc(Nc2ncc3c(n2)-c2ccccc2[C@H](c2ccc(F)cc2)C3)cc1` [Example 99, (S)-N-(4-(2-(butyl(methyl)amino)ethyl)phenyl)-6-(4-fluorophenyl)-5,6-dihydrobenzo[h]quinazolin-2-amine], the figure is 6.16 µM.

Test system in another data set: not given
Experiment: not given
Conditions: not given
Regarding `Fc1ccc(C2Cc3cnc(NCCCN4CCCCC4)nc3-c3ccccc32)cc1` (stereo not drawn) [Example 16, 6-(4-fluorophenyl)-N-(3-(piperidin-1-yl)propyl)-5,6-dihydrobenzo[h]quinazolin-2-amine], the melting point was 60 to 62 °C.
Same read-out and setting: next, `Brc1cccc(C2Cc3cnc(Nc4ccc(CCNc5ccccc5)cc4)nc3-c3ccccc32)c1` (stereo not drawn) [Example 35, 6-(3-bromophenyl)-N-(4-(2-(phenylamino)ethyl)phenyl)-5,6-dihydrobenzo[h]quinazolin-2-amine]: 92 to 94 °C; `Fc1ccc([C@@H]2Cc3cnc(Nc4ccc(CCN5CCOCC5)cc4)nc3-c3ccccc32)cc1F` (as salt: hydrochloride) [Example 92, (S)-6-(3,4-difluorophenyl)-N-(4-(2-morpholinoethyl)phenyl)-5,6-dihydrobenzo[h]quinazolin-2-amine hydrochloride]: 97 to 99 °C; `COCCN1CCN(CCc2ccc(Nc3ncc4c(n3)-c3ccccc3[C@H](c3ccc(Cl)cc3)C4)cc2)CC1` (as salt: hydrochloride) [Example 113, (S)-6-(4-chlorophenyl)-N-(4-(2-(4-(2-methoxyethyl)piperazin-1-yl)ethyl)phenyl)-5,6-dihydrobenzo[α]quinazolin-2-amine hydrochloride]: 261 to 263 °C.
Same read-out and setting: next, `COCCNCCc1ccc(Nc2ncc3c(n2)-c2ccccc2[C@H](c2ccc(F)c(F)c2)C3)cc1` (as salt: HCl) [Example 82, (S)-6-(3,4-difluorophenyl)-N-(4-(2-(2-methoxyethylamino)ethyl)phenyl)-5,6-dihydrobenzo[h]quinazolin-2-amine]: 221 to 225 °C; `CCCCN(C)CCc1cccc(Nc2ncc3c(n2)-c2ccccc2[C@H](c2ccc(Cl)c(Cl)c2)C3)c1` (as salt: hydrochloride) [Example 168, (S)—N-(3-(2-(butyl(methyl)amino)ethyl)phenyl)-6-(3,4-dichlorophenyl)-5,6-dihydrobenzo[h]quinazolin-2-amine hydrochloride]: 162 to 166 °C; `COCCN1CCN(CCc2ccc(Nc3ncc4c(n3)-c3ccccc3[C@@H](c3ccc(F)c(F)c3)C4)cc2)CC1` (as salt: hydrochloride) [Example 90, (R)-6-(3,4-difluorophenyl)-N-(4-(2-(4-(2-methoxyethyl)piperazin-1-yl)ethyl)phenyl)-5,6-dihydrobenzo[h]quinazolin-2-amine hydrochloride]: 190 to 192 °C.
Same read-out and setting: as for `CN(CCc1ccc(Nc2ncc3c(n2)-c2ccccc2[C@H](c2ccc(Cl)c(Cl)c2)C3)cc1)C1CCCCC1` (as salt: hydrochloride) [Example 106, (S)—N-(4-(2-(cyclohexyl(methyl)amino)ethyl)phenyl)-6-(3,4-dichlorophenyl)-5,6-dihydrobenzo[h]quinazolin-2-amine hydrochloride salt], the figure is 175 to 185 °C; as for `OCCc1ccc(Nc2ncc3c(n2)-c2ccccc2C(c2ccc(F)c(F)c2)C3)cc1` (stereo not drawn) [Example 23, 2-(4-(6-(3,4-difluorophenyl)-5,6-dihydrobenzo[h]quinazolin-2-ylamino)phenyl)ethanol], 170 to 172 °C; as for `CCCCN(C)CCc1ccc(Nc2ncc3c(n2)-c2ccccc2C(c2ccc(Cl)cc2)C3)cc1` (stereo not drawn) (as salt: hydrochloride), 145 to 150 °C.
`CN(CCc1ccc(Nc2ncc3c(n2)-c2ccccc2C(c2cccc(Br)c2)C3)cc1)C1CCCCC1` (stereo not drawn) [Example 29, 6-(3-bromophenyl)-N-(4-(2-(cyclohexyl(methyl)amino)ethyl)phenyl)-5,6-dihydrobenzo[h]quinazolin-2-amine]: the melting point lay within 215 to 217 °C.
The same measure, in the same setting: as for `CCCCN(C)CCc1ccc(Nc2ncc3c(n2)-c2ccccc2[C@@H](c2ccc(Br)cc2)C3)cc1` (as salt: hydrochloride) [Example 107, (R)-6-(4-bromophenyl)-N-(4-(2-(butyl(methyl)amino)ethyl)phenyl)-5,6-dihydrobenzo[h]quinazolin-2-amine hydrochloride salt], the figure is 140 to 145 °C; as for `COCCN1CCN(CCc2ccc(Nc3ncc4c(n3)-c3ccccc3C(c3ccccc3)C4)cc2)CC1` (stereo not drawn) [Example 65, N-(4-(2-(4-(2-methoxyethyl)piperazin-1-yl)ethyl)phenyl)-6-phenyl-5,6-dihydrobenzo[h]quinazolin-2-amine], 52 to 54 °C; as for `CN1CCN(CCc2ccc(Nc3ncc4c(n3)-c3ccccc3[C@H](c3ccc(Cl)c(Cl)c3)C4)cc2)CC1` (as salt: hydrochloride) [Example 114, (S)-6-(3,4-dichlorophenyl)-N-(4-(2-(4-methylpiperazin-1-yl)ethyl)phenyl)-5,6-dihydrobenzo[h]quinazolin-2-amine hydrochloride], 236 to 238 °C.
